The text below walks through data of patent US9212178B2, “Substituted pyrimidine compounds and their use as SYK inhibitors” (Genosco, priority 2013, dated 2015).

Where two headings read alike, the source gives them in different places.

The test system of test [1] is Collagen-induced arthritis in DBA/1J mice. The test is described as follows: Collagen-induced arthritis (CIA) mouse model, macroscopic paw scoring. The test is classed as in vivo. To be noted: 30 mg/kg/day once daily oral gavage, vehicle = 100.0. The protocol: CIA mouse model was induced in DBA/1J mice (Japan Charles River Breeding Laboratories, Kanagawa, Japan) with 5 to 6 weeks of age. Animals were maintained at a temperature of 20±5° C. and a relative humidity of 40˜60%.
Bovine type II collagen (CII, 2 mg/ml dissolved in 0.05 M acetic acid, Chondrex, Redmond, Wash.) was emulsified in equal volumes of Freund's complete adjuvant (4 mg/ml of Mycobacterium tuberculosis strain H37Ra; Chondrex, Redmond, Wash.). On day 0, mice were immunized intradermally at the base of the tail with 100 μg bovine type II collagen emulsified in Freund's complete adjuvant. On day 21, all mice were boosted with an intraperitoneal injection of 100 μg type II collagen.
These compounds were dissolved in NMP/20% cyclodextrin/PEG400 5:45:50 solution and filtered by […] membrane filter. All the test substances were administered once daily at 30 mg/kg/day by oral gavage for 3 weeks.
The gradual onset of arthritis usually starts approximately 3 weeks after initial immunization. The progression of CIA was evaluated by the macroscopic scoring of paws at intervals of 3 days. The edema and swelling of each paw was scored visually as was described previously, using a scale of 0-4, where 0=no visible abnormalities, 1=mild redness or swelling of the wrist or up to three inflamed digits, 2=more than three inflamed digits or moderate redness and swelling of the ankle or wrist, 3=severe ankle and wrist inflammation, 4=extensive ankle and wrist inflammation including all digits. Therefore, the score of each mouse was calculated for the four limbs (maximum total score of 16 for each mouse) (Courtenay J S, Dallman M J, Dayan A D, et al., Immunisation against heterologous type II collagen induces arthritis in mice, Nature, 1980, 283, 666-668)
Arthritis was considered to be present if the score was >2. The blind scoring was performed by four independent observers. In this study, data was calculated by following equation. […] Results

For the next test, the system named is THP-1 cells. Kind of test: SYK-dependent TNF-α release assay (IgG stimulation), ELISA. Type of test: cell-based. The settings on record: THP-1 cells on human IgG-coated plate, 18 hours; read-out: TNF-α release inhibition, IgG stimulation IC50. Here is the method: In order to address cellular potency of Compounds of Formula (I), TNF-a production was measured on treatment of a series of concentration of SYK inhibitor in THP-1 cells.
For SYK-dependent TNF-α release assay (i.e., via IgG stimulation), THP-1 cells derived from human monocytic cells were obtained from the American Type Culture Collection (ATCC, Manassas, Va.). This cell line was maintained with a Roswell Park Memorial Institute (RPMI) medium (GIBCO) containing 10% fetal bovine serum (FBS; GIBCO) and 0.05 mM solution of 2-mercaptoethanol. The THP-1 cells were seeded at 1×10^5 cells/100 μL/well into human IgG (10 ng/well, INVITROGEN)-coated 96 well culture plate, and serially diluted compound was then added. After an 18 hours of incubation period at 37° C., supernatants were collected for the determination of the TNF-α level by enzyme-linked immunosorbent assay (ELISA), and the remaining cells were subjected to an MTT (yellow tetrazolium salt) assay to determine the cytotoxic effects of the compound. The IC50 value of the test compound was calculated at Gradpad Prism 5 unless otherwise specified.

The next test addresses full-length human SYK (Homo sapiens (Human), UniProt P43405). Kind of test: Inhibition of enzymatic SYK kinase activity (LANCE Ulight TK peptide). The test is classed as biochemical. Here is the method: Compounds of the present invention were assayed to measure their capacity to inhibit a spleen tyrosine kinase (SYK).
Compounds of the invention were initially diluted to 10 mM in 100% DMSO (CALBIOCHEM™) for storage and made into kinase buffer solution to create a compound concentration ranging from 1 uM and 10 uM. Serial dilutions of compounds of the invention were dispensed into a 96-well plate (GREINER BIOSCIENCES™) at 6 μL each. Purified full-length human SYK (CARNA BIOSCIENCES™) were diluted in kinase buffer and added to the compound solutions and pre-incubated for 30 minutes at room temperature. […] The reaction mixture was incubated for 1 hour. Following the incubation, the stop solution made with EDTA, water, and Lance detection buffer ([…]™) was added (12 μL each) to stop phosphorylation.
In general terms: TR-FRET usually uses a lanthanide donor and a delayed reading to cut background.

[2] abbreviates: ATP at Km (15 uM), 30 min pre-incubation.

Take `CCn1cc(C(=O)C2CC2)c2cc(Nc3nccc(-n4cc(CN5C[C@H](O)CO5)c(C)n4)n3)ccc21` [Compound 6, (S)-cyclopropyl(1-ethyl-5-(4-(4-((4-hydroxyisoxazolidin-2-yl)methyl)-3-methyl-1H-pyrazol-1-yl)pyrimidin-2-ylamino)-1H-indol-3-yl)methanone]: the “CIA index (arthritic score of test group / vehicle group x 100)” value in test [1] (day 4) was 0.0 ± 0.0%; in test [1] (day 7) it was 10.9 ± 8.9%; in test [1] (day 10) it was 32.3 ± 11.5%; in test [1] (day 13) it was 45.3 ± 10.5%; in test [1] (day 17), 53.3 ± 7.4%; in test [1] (day 19) it was 63.4 ± 4.0%. Besides, the IC50 in the test on THP-1 cells was found to be 0.057 µM; against full-length human SYK (setting [2]) it was 0.00469 µM.
Turning to `Cc1nn(-c2ccnc(Nc3ccc4c(c3)c(C(=O)C3CC3)cn4CCF)n2)cc1CN1C[C@H](O)CO1` [Compound 23, (S)-cyclopropyl(1-(2-fluoroethyl)-5-(4-(4-((4-hydroxyisoxazolidin-2-yl)methyl)-3-methyl-1H-pyrazol-1-yl)pyrimidin-2-ylamino)-1H-indol-3-yl)methanone], the IC50 in the test on THP-1 cells is 0.111 µM; on full-length human SYK (setting [2]), 0.00371 µM.
In the case of `CCn1cc(C(=O)C2CC2)c2cc(Nc3nccc(-n4cc(CN5C[C@H](O)CO5)c(C5CC5)n4)n3)ccc21` [Compound 25, (S)-cyclopropyl(5-(4-(3-cyclopropyl-4-((4-hydroxyisoxazolidin-2-yl)methyl)-1H-pyrazol-1-yl)pyrimidin-2-ylamino)-1-ethyl-1H-indol-3-yl)methanone], the IC50 with THP-1 cells came out at 0.465 µM; against full-length human SYK (setting [2]), 0.00585 µM.
On to `Cc1nn(-c2ccnc(Nc3ccc4c(c3)c(S(C)(=O)=O)nn4C)n2)cc1CN1C[C@H](O)CO1` [Compound 26, (S)-2-((3-methyl-1-(2-(1-methyl-3-(methylsulfonyl)-1H-indazol-5-ylamino)pyrimidin-4-yl)-1H-pyrazol-4-yl)methyl)isoxazolidin-4-ol], for which the IC50 with THP-1 cells turned out to be 1.06 µM; against full-length human SYK (setting [2]), 0.0871 µM.
`Cc1nn(-c2ccnc(Nc3ccc4c(c3)c(C(=O)C3CC3)cn4S(C)(=O)=O)n2)cc1CN1C[C@H](O)CO1` [Compound 27, (S)-cyclopropyl(5-(4-(4-((4-hydroxyisoxazolidin-2-yl)methyl)-3-methyl-1H-pyrazol-1-yl)pyrimidin-2-ylamino)-1-(methylsulfonyl)-1H-indol-3-yl)methanone]: the IC50 amounted to 0.043 µM with THP-1 cells and 0.00589 µM at full-length human SYK (setting [2]).
Consider `CCn1cc(C(=O)C2CC2)c2cc(Nc3nccc(-n4cc(C)c(CN5C[C@H](O)CO5)c4)n3)ccc21` [Compound 29, (S)-cyclopropyl(1-ethyl-5-(4-(3-((4-hydroxyisoxazolidin-2-yl)methyl)-4-methyl-1H-pyrrol-1-yl)pyrimidin-2-ylamino)-1H-indol-3-yl)methanone], for which the IC50 with THP-1 cells came out at 0.07 µM; on full-length human SYK it was 0.0695 µM.
As to `O=C(c1cn(CCF)c2ccc(Nc3nccc(-n4cc(CN5C[C@H](O)CO5)cn4)n3)cc12)C1CC1` [Compound 32, (S)-cyclopropyl(1-(2-fluoroethyl)-5-(4-(4-((4-hydroxyisoxazolidin-2-yl)methyl)-1H-pyrazol-1-yl)pyrimidin-2-ylamino)-1H-indol-3-yl)methanone], the results for the half-inhibitory concentration (IC50) with THP-1 cells and against full-length human SYK (setting [2]) were 0.053 µM and 0.00352 µM, respectively.
For `O=C(c1cn(CC(F)F)c2ccc(Nc3nccc(-n4cc(CN5C[C@H](O)CO5)cn4)n3)cc12)C1CC1` [Compound 33, (S)-cyclopropyl(1-(2,2-difluoroethyl)-5-(4-(4-((4-hydroxyisoxazolidin-2-yl)methyl)-1H-pyrazol-1-yl)pyrimidin-2-ylamino)-1H-indol-3-yl)methanone] the same measures were 0.06 µM and 0.00534 µM.
For `O=C(c1cn(CC(F)(F)F)c2ccc(Nc3nccc(-n4cc(CN5C[C@H](O)CO5)cn4)n3)cc12)C1CC1` [Compound 34, (S)-cyclopropyl(5-(4-(4-((4-hydroxyisoxazolidin-2-yl)methyl)-1H-pyrazol-1-yl)pyrimidin-2-ylamino)-1-(2,2,2-trifluoroethyl)-1H-indol-3-yl)methanone] the same measures were 0.055 µM and 0.0058 µM.
Turning to `COc1cc(Nc2ncc(F)c(Nc3ccc4c(n3)N(COP(=O)(O)O)C(=O)C(C)(C)O4)n2)cc(OC)c1OC` [Compound R788, reference compound], the “CIA index (arthritic score of test group / vehicle group x 100)” value in test [1] (day 4) is on record as 36.7 ± 22.7%; in test [1] (day 7), 82.2 ± 45.2%; in test [1] (day 10) it was 80.3 ± 27.3%; in test [1] (day 13), 97.8 ± 25.0%; in test [1] (day 17) it was 73.3 ± 11.2%; in test [1] (day 19) it was 72.1 ± 11.2%.
“cyclopropyl(1-(2-fluoroethyl)-5-(4-(4-(((S)-4-hydroxyisoxazolidin-2-yl)methyl)-3-methyl-1H-pyrazol-1-yl)pyrimidin-2-ylamino)indolin-3-yl)methanone [Compound 24]”: the half-maximal inhibitory concentration (IC50) with THP-1 cells was 0.047 µM; on full-length human SYK (setting [2]) it was 0.0031 µM.

For orientation: IC50 means the concentration that inhibits the measured activity by half.
